From patent publication US10118892B2, “Compounds and their synthesis” (UCL BUSINESS PLC, priority 2012, dated 2018)

Experiments:
[1] = Biodistribution studies: blood and brain uptake of radiotracer over time; format: in vivo, Balb/C or FVB mice; conditions: mice
Experimental: (§1) A series of radiolabelled tracers was prepared using the reported chemistry and investigated in vivo (Balb/C or FVB mice) by biodistribution studies and/or metabolite analysis. Examples in FIGS. 7-10 highlight the versatility of the reported chemistry that allows for tracers with a variety of backbone structures and side chains. By deliberately modifying chemical moieties the tracer can be fine-tuned towards up-take in tissues of interest, e.g. brain, heart or lungs. FIGS. 11-15 show the results of the in vivo investigation of a potential pro-drug tracer that was developed to monitor the efflux pump P-glycoprotein at the blood-brain barrier.
Female Balb/C mice and FVB mice were obtained from Charles River UK. When used, they were eight to eleven weeks old and weighing approximately 20 g. […]
(§2) The respective radiotracer (0.5-1 MBq formulated in a saline solution containing 5% ethanol) was administered intravenously into the tail vein. […] The organs of interest (blood, colon, stomach, spleen, kidneys, liver, heart, lungs, tail, femur, skull, and brain) were sampled, weighed, and the radioactivity content was measured by automated gamma counting (Cobra Multi Gamma Model 5010-Packard, UK). Results were normalised to the radioactivity found in 1% of the injected dose per gram bodyweight. All experiments were performed in duplicates or triplicates and analysed using Microsoft Office Excel 2007.

[2] = target: T1, P-glycoprotein at the blood-brain barrier (Mus musculus, UniProt P21447); assay: Biodistribution with P-glycoprotein activity inhibited by concomitant tariquidar (TQD); format: in vivo, Balb/C or FVB mice; conditions: mice, with and without TQD (FIG. 15)
T1 construct: investigated in vivo (Balb/C or FVB mice) by biodistribution studies and/or metabolite analysis; tissue Charles River UK; host or cells: living Balb/C or FVB mice; blood-brain barrier / brain
T1 sequence (P21447 whole entry): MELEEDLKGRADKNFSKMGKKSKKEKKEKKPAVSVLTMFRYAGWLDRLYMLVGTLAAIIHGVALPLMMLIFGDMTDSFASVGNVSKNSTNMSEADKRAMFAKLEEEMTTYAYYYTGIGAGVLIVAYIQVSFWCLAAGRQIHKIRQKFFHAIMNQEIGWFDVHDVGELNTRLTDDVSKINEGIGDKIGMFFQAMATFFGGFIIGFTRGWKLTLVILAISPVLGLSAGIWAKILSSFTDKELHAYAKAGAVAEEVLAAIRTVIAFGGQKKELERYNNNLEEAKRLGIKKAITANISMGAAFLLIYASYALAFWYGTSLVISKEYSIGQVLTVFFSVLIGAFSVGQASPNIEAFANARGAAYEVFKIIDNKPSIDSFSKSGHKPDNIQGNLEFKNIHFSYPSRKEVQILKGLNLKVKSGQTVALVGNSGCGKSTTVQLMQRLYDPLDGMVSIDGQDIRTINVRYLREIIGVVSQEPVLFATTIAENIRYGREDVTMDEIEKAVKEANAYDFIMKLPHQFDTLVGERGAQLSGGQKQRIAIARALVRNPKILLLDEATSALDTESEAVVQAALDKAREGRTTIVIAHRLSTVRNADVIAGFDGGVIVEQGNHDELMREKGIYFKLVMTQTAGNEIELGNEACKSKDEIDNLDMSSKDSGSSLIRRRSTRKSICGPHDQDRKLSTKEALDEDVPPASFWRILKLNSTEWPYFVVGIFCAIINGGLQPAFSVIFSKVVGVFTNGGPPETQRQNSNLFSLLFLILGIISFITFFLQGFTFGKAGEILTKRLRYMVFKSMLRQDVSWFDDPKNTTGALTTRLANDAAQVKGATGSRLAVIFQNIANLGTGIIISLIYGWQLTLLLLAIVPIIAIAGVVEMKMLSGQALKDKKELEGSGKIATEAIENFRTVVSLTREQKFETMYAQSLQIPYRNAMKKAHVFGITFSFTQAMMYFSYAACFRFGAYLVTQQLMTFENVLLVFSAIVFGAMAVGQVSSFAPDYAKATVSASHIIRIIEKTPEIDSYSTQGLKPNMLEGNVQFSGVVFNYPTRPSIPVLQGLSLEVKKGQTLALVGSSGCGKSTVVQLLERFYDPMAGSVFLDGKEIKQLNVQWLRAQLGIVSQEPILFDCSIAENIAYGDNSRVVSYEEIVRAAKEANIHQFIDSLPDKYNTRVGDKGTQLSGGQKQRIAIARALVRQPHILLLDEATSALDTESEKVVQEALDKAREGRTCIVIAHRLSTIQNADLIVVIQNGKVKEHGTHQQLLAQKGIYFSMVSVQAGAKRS
Experimental: as §1, with “barrier. […]” for “barrier.”
as §2
Brains were homogenised in saline (0.5 ml) and ethanol (0.5 ml). […] The flow rate was 1 ml/min and the UV absorbance detector was set at 254 nm. […]

OCCCCN1CCC(=C(c2ccccc2)c2ccc(F)cc2)CC1 [Compound [^18F]6]
brain uptake ([1]; intravenous into tail vein, uptake over time (FIG. 15)): high brain uptake
brain to blood ratio ([1]; intravenous, FIG. 15, suitable for nuclear imaging): good brain to blood ratio
wash-out of tracer from the brain by P-glycoprotein [2]: consistently washed out of the brain by P-glycoprotein
